Measured values published in US12180193B2, “Accelerating fibrosarcoma protein degrading compounds and associated methods of use” (Arvinas Operations, Inc., priority 2020, dated 2024).

Assays:
BRAF G466V = target: T1, BRAF G466V (Homo sapiens, UniProt P15056, G466V); experiment: Cellular assay of target protein degradation, T-Rex 293 cells stably transfected with HA-BRAF G466V (HA immunofluorescence, high content imaging); assay type: cell-based; details: T-Rex 293 HA-BRAF G466V; for DC50: half maximal degradation, read-out: BRaf G466V DC50; for Dmax: maximum degradation observed
T1 construct: expressed in transfected cells
Summary of the method: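 First, stably transfected T-Rex 293 cells were plated with 0.75 ng/mL doxycycline and grown for 24 hours. Next, compound (final 30 nM to 3 pM, 0.1% DMSO) was added for another 24 hours at 37° C. Finally, cells were fixed, stained for HA and imaged.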

BRAF V600E = target: T2, BRAF V600E (Homo sapiens, UniProt P15056, V600E); experiment: Cellular assay of target protein degradation, T-Rex 293 cells stably transfected with HA-BRAF_V600E (HA immunofluorescence, high content imaging); assay type: cell-based; details: T-Rex 293 HA-BRAF V600E; for DC50: half maximal degradation, read-out: BRaf V600E DC50; for Dmax: maximum degradation observed
T2 construct: expressed in transfected cells
Summary of the method: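 Read-out is anti-HA immunofluorescence quantified by high-content imaging, giving half-maximal degradation concentration (DC50) and maximum degradation (Dmax, percent of control). Cells expressed the construct under 1 ng/mL doxycycline and received compound (1 μM to 0.1 nM final, 0.1% DMSO) for 24 h at 37 °C.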

T2 sequence (P15056 whole entry V600E): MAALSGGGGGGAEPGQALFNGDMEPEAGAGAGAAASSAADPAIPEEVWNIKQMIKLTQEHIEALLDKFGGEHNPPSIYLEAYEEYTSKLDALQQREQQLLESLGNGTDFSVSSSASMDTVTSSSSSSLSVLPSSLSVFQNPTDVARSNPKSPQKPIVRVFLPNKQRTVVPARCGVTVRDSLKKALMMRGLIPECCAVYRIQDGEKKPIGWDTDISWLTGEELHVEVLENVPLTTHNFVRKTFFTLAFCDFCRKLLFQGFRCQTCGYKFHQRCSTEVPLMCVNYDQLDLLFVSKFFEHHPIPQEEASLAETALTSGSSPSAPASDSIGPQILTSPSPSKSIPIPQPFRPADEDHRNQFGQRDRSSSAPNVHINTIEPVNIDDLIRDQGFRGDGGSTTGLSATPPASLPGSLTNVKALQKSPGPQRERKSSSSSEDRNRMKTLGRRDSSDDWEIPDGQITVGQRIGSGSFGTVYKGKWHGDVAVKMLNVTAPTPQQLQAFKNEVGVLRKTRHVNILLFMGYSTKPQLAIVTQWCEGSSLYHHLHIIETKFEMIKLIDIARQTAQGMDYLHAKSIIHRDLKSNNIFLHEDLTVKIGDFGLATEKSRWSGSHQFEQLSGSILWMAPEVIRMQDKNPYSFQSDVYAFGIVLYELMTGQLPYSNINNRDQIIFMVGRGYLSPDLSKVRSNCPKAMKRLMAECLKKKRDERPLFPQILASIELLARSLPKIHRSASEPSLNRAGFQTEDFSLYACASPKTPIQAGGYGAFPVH
T1 sequence (P15056 whole entry G466V): as the sequence (P15056 whole entry V600E) above, with G466V, E600V counted along it

Row | SMILES | DC50 (BRAF G466V) | Dmax (BRAF G466V) | DC50 (BRAF V600E) | Dmax (BRAF V600E)
1 | O=C1CC[C@@H](N2Cc3cc([C@H](O)CCN4CCC(c5ccc(-c6cnc7[nH]cc(C(=O)c8c(F)ccc(NS(=O)(=O)N9CC[C@@H](F)C9)c8F)c7c6)cc5)CC4)ccc3C2=O)C(=O)N1 [Compound 68, (3R)—N-[3-[5-(4-[1-[(3R)-3-[2-[(3R)-2,6-dioxopiperidin-3-yl]-1-oxo-3H-isoindol-5-yl]-3-hydroxypropyl]piperidin-4-yl]phenyl)-1H-pyrrolo[2,3-b]pyridine-3-carbonyl]-2,4-difluorophenyl]-3-fluoropyrrolidine-1-sulfonamide] | 1 to 10 nM | > 70% | > 500 nM | 
2 | O=C1CCC(N2Cc3cc(N4CC5(CN(CCOc6ncc(-c7cnc8[nH]cc(C(=O)c9c(F)ccc(NS(=O)(=O)N%10CC[C@@H](F)C%10)c9F)c8c7)cn6)C5)C4)ccc3C2=O)C(=O)N1 (stereo partly drawn) [Compound 117, (3R)-N-(3-{5-[2-(2-{6-[2-(2,6-dioxopiperidin-3-yl)-1-oxo-2,3-dihydro-1H-isoindol-5-yl]-2,6-diazaspiro[3.3]heptan-2-yl}ethoxy)pyrimidin-5-yl]-1H-pyrrolo [2,3-b]pyridine-3-carbonyl}-2,4-difluorophenyl)-3-fluoropyrrolidine-1-sulfonamide] | 1 to 10 nM | > 70% | 50 to 500 nM | 35 to 70%
3 | Cc1c(NS(=O)(=O)N2CC[C@@H](F)C2)ccc(F)c1C(=O)c1c[nH]c2ncc(-c3ccc(N4CCC(CN5CCC(c6ccc7c(c6)CN([C@H]6CCC(=O)NC6=O)C7=O)CC5)CC4)cc3)cc12 [Compound 253, (3R)-N-{3-[5-(4-{4-[(4-{2-[(3S)-2,6-dioxopiperidin-3-yl]-1-oxo-2,3-dihydro-1H-isoindol-5-yl}piperidin-1-yl)methyl]piperidin-1-yl}phenyl)-1H-pyrrolo [2,3-b]pyridine-3-carbonyl]-4-fluoro-2-methylphenyl}-3-fluoropyrrolidine-1-sulfonamide] | 1 to 10 nM | 35 to 70% | 5 to 50 nM | 35 to 70%
